Laboratory results taken from patent US20070116839A1, “High-Potency Sweetener Composition With C-Reactive Protein Reducing Substance and Compositions Sweetened Therewith” (THE COCA-COLA COMPANY, priority 2005, published 2007).

What was measured:
[1] = Rate of dissolution in H2O at 25° C. of rebaudioside A polymorph and amorphous forms; format: physicochemical
[2] = Sensory evaluation of sweetness linger and sugar-like taste by expert panel; format: in vivo; parameters: key: 0=no sweetness linger; 1=very slight sweetness linger; 2=slight sweetness linger; 3=moderate sweetness linger; 4=moderately high sweetness linger; 5=high sweetness linger; details: for Sweetness linger: scale 0-5; for Sweetness Linger rating (defined for the protocol): scale anchors: sucrose, 500 ppm REBA control sample
Procedure: In a particular embodiment, a panel of assessors is used to measure the reduction of sweetness linger. Briefly described, a panel of assessors (generally 8 to 12 individuals) is trained to evaluate sweetness perception and measure sweetness at several time points from when the sample is initially taken into the mouth until 3 minutes after it has been expectorated. […] A decrease in score for a time point measured after the sample has cleared the mouth indicates there has been a reduction in sweetness perception.
The panel of assessors may be trained using procedures well known to those of ordinary skill in the art. In a particular embodiment, the panel of assessors may be trained using the Spectrum™ Descriptive Analysis Method (Meilgaard et al, Sensory Evaluation Techniques, 3rd edition Chapter 11). Desirably, the focus of training should be the recognition of and the measure of the basic tastes; specifically, sweet. In order to ensure accuracy and reproducibility of results, each assessor should repeat the measure of the reduction of sweetness linger about three to about five times per sample, taking at least a five minute break between each repetition and/or sample and rinsing well with water to clear the mouth.
Generally, the method of measuring sweetness comprises taking a 10 mL sample into the mouth, holding the sample in the mouth for 5 seconds and gently swirling the sample in the mouth, rating the sweetness intensity perceived at 5 seconds, expectorating the sample (without swallowing following expectorating the sample), rinsing with one mouthful of water (e.g., vigorously moving water in mouth as if with mouth wash) and expectorating the rinse water, rating the sweetness intensity perceived immediately upon expectorating the rinse water, waiting 45 seconds and, while wating those 45 seconds, identifying the time of maximum perceived sweetness intensity and rating the sweetness intensity at that time (moving the mouth normally and swallowing as needed), rating the sweetness intensity after another […], rating the sweetness intensity after another 60 seconds (cumulative 120 seconds after rinse), and rating the sweetness intensity after still another 60 seconds (cumulative 180 seconds after rinse), Between samples take a 5 minute break, rinsing well with water to clear the mouth.
Sensory evaluation of the samples prepared in Example Set G was carried out under the following protocol, similar to that described hereinabove. In this test protocol, none of the samples were swallowed. […] Immediately upon sensing maximal sweetness, the sample was expectorated, the mouth was rinsed with water and the rate of sweetness decay (“Sweetness Linger”) was measured, where attention was focused on the sweetness 3-4 min after the water rinse. […]

[3] = Sweetness stated as sucrose equivalent; format: in vivo
[4] = format: physicochemical
Procedure: A solution of rebaudioside A (>97% pure by HPLC ) was prepared in double distilled water (12.5 gm in 50 mL, 25% concentration) by stirring the mixture at 40° C. for 5 minutes. An amorphous form of rebaudioside A was formed by immediately using the clear solution for spray drying with the Lab-Plant spray drier SD-04 instrument (Lab-Plant Ltd., West Yorkshire, U.K.). The solution was fed through the feed pump into the nozzle atomizer which atomized it into a spray of droplets with the help of a constant flow of nitrogen/air. […] This dry powder (11-12 g, H2O6.74%) was discharged continuously from the drying chamber and was collected in a bottle.

| Structure (SMILES) | Rate of dissolution in H2O at 25° C. [1] | Sweetness Linger rating (defined for the protocol) [2] | also measured |
| --- | --- | --- | --- |
| C=C1C[C@@]23CC[C@H]4[C@@](C)(CCC[C@@]4(C)C(=O)O[C@@H]4O[C@H](CO)[C@@H](O)[C@H](O)[C@H]4O)[C@@H]2CC[C@]1(O[C@@H]1O[C@H](CO)[C@@H](O)[C@H](O[C@@H]2O[C@H](CO)[C@@H](O)[C@H](O)[C@H]2O)[C@H]1O[C@@H]1O[C@H](CO)[C@@H](O)[C@H](O)[C@H]1O)C3 [Form 1, rebaudioside A] | < 0.2 %/60 minutes | – | – |
| C=C1C[C@@]23CC[C@H]4[C@@](C)(CCC[C@@]4(C)C(=O)O[C@@H]4O[C@H](CO)[C@@H](O)[C@H](O)[C@H]4O)[C@@H]2CC[C@]1(O[C@@H]1O[C@H](CO)[C@@H](O)[C@H](O[C@@H]2O[C@H](CO)[C@@H](O)[C@H](O)[C@H]2O)[C@H]1O[C@@H]1O[C@H](CO)[C@@H](O)[C@H](O)[C@H]1O)C3 [REBA, rebaudioside A] | – | 5 | Sweetness linger ([2]; Example Set G: 400 ppm REBA in citric acid/potassium citrate composition equivalent to diet lemon-lime beverage, with additive, sugar control 8 g in 100 ml citrate buffer): 5; Sweetness linger ([2]; Example Set H: 500 ppm REBA (H41: 360 ppm) in carbon-treated water, phosphoric acid (75%) to pH 2.4-2.5, with additive, sugar control 10 g in 100 ml): 5; Sweetness equivalent to sucrose ([3]; 180 ppm rebaudioside A in beverage diluted 1:1 with rebaudioside A/citrate composition): 5 % sucrose; Sweetness equivalent to sucrose ([3]; 400 ppm REBA in citric acid/potassium citrate composition): 8 g sucrose |
| OC[C@H]1O[C@@](CO)(O[C@H]2O[C@H](CO)[C@@H](O)[C@H](O)[C@H]2O)[C@@H](O)[C@@H]1O [sucrose] | – | 0 | – |

Second part, led by results:

| Rate of dissolution in H2O at 25° C. [1] | Structure (SMILES) | Sweetness Linger rating (defined for the protocol) [2] | also measured |
| --- | --- | --- | --- |
| > 30 %/5 minutes | C=C1C[C@@]23CC[C@H]4[C@@](C)(CCC[C@@]4(C)C(=O)O[C@@H]4O[C@H](CO)[C@@H](O)[C@H](O)[C@H]4O)[C@@H]2CC[C@]1(O[C@@H]1O[C@H](CO)[C@@H](O)[C@H](O[C@@H]2O[C@H](CO)[C@@H](O)[C@H](O)[C@H]2O)[C@H]1O[C@@H]1O[C@H](CO)[C@@H](O)[C@H](O)[C@H]1O)C3 [Form 3, rebaudioside A] | – | – |
| < 30 %/5 minutes | C=C1C[C@@]23CC[C@H]4[C@@](C)(CCC[C@@]4(C)C(=O)O[C@@H]4O[C@H](CO)[C@@H](O)[C@H](O)[C@H]4O)[C@@H]2CC[C@]1(O[C@@H]1O[C@H](CO)[C@@H](O)[C@H](O[C@@H]2O[C@H](CO)[C@@H](O)[C@H](O)[C@H]2O)[C@H]1O[C@@H]1O[C@H](CO)[C@@H](O)[C@H](O)[C@H]1O)C3 [Form 2, rebaudioside A] | – | – |
| > 35 %/5 minutes | C=C1C[C@@]23CC[C@H]4[C@@](C)(CCC[C@@]4(C)C(=O)O[C@@H]4O[C@H](CO)[C@@H](O)[C@H](O)[C@H]4O)[C@@H]2CC[C@]1(O[C@@H]1O[C@H](CO)[C@@H](O)[C@H](O[C@@H]2O[C@H](CO)[C@@H](O)[C@H](O)[C@H]2O)[C@H]1O[C@@H]1O[C@H](CO)[C@@H](O)[C@H](O)[C@H]1O)C3 [Form 4, rebaudioside A] | – | Solubility in water at room temperature [4]: > 35,0% |
